# Values of other authors, collected in PubChem BioAssay AID1259409 (Chemical Carcinogenesis Research Information System (CCRIS), 2018).
# Several values for one entry are separate records, joined by “and”; a condition that tells them apart may be missing. Equal entries are not always repeated.
# System: rodent chemically induced tumor inhibition, incidence and multiplicity
# Assay: CCRIS tumor inhibitor studies
# Settings: Carcinogen: NONE USED, Route [Inhibitor]: ORAL, Promoter: NONE USED
smiles,measurement,setting,value
CC(N)Cc1ccccc1 (stereo not given),"tumour outcome (control, treated, inhibition, significance)","Dose [Inhibitor]: 0, 20 PPM IN FEED FOR 103 WK (STUDY DURATION: 2 YR), Species: MOUSE, Strain/Sex: B6C3F1/FEMALE, Target Tissue: Type of Lesion: HARDERIAN GLAND: ADENOMA","5/50 (10%), 2/50 (4%), 60%, not calculated"
same,"tumour outcome (control, treated, inhibition, significance)","Dose [Inhibitor]: 0, 20 PPM IN FEED FOR 103 WK (STUDY DURATION: 2 YR), Species: MOUSE, Strain/Sex: B6C3F1/FEMALE, Target Tissue: Type of Lesion: LIVER: ADENOMA","5/50 (10%), 1/50 (2%), 80%, not calculated"
same,"tumour outcome (control, treated, inhibition, significance)","Dose [Inhibitor]: 0, 20 PPM IN FEED FOR 103 WK (STUDY DURATION: 2 YR), Species: MOUSE, Strain/Sex: B6C3F1/FEMALE, Target Tissue: Type of Lesion: LUNG: ADENOMA OR CARCINOMA","8/50 (16%), 6/50 (12%), 25%, not calculated"
same,"tumour outcome (control, treated, inhibition, significance)","Dose [Inhibitor]: 0, 20 PPM IN FEED FOR 103 WK (STUDY DURATION: 2 YR), Species: MOUSE, Strain/Sex: B6C3F1/FEMALE, Target Tissue: Type of Lesion: LUNG: ADENOMA","7/50 (14%), 4/50 (8%), 43%, not calculated"
same,"tumour outcome (control, treated, inhibition, significance)","Dose [Inhibitor]: 0, 20 PPM IN FEED FOR 103 WK (STUDY DURATION: 2 YR), Species: MOUSE, Strain/Sex: B6C3F1/MALE, Target Tissue: Type of Lesion: HARDERIAN GLAND: ADENOMA","4/50 (8%), 2/50 (4%), 50%, not calculated"
same,"tumour outcome (control, treated, inhibition, significance)","Dose [Inhibitor]: 0, 20 PPM IN FEED FOR 103 WK (STUDY DURATION: 2 YR), Species: MOUSE, Strain/Sex: B6C3F1/MALE, Target Tissue: Type of Lesion: LIVER: ADENOMA OR CARCINOMA","14/50 (28%), 12/50 (24%), 15%, not calculated"
same,"tumour outcome (control, treated, inhibition, significance)","Dose [Inhibitor]: 0, 20 PPM IN FEED FOR 103 WK (STUDY DURATION: 2 YR), Species: MOUSE, Strain/Sex: B6C3F1/MALE, Target Tissue: Type of Lesion: LIVER: ADENOMA","10/50 (20%), 7/50 (14%), 30%, not calculated"
same,"tumour outcome (control, treated, inhibition, significance)","Dose [Inhibitor]: 0, 20 PPM IN FEED FOR 103 WK (STUDY DURATION: 2 YR), Species: MOUSE, Strain/Sex: B6C3F1/MALE, Target Tissue: Type of Lesion: LIVER: CARCINOMA","4/50 (8%), 6/50 (12%), -50%, not calculated"
same,"tumour outcome (control, treated, inhibition, significance)","Dose [Inhibitor]: 0, 20 PPM IN FEED FOR 103 WK (STUDY DURATION: 2 YR), Species: MOUSE, Strain/Sex: B6C3F1/MALE, Target Tissue: Type of Lesion: LUNG: ADENOMA","6/50 (12%), 2/50 (4%), 67%, not calculated"
same,"tumour outcome (control, treated, inhibition, significance)","Dose [Inhibitor]: 0, 20 PPM IN FEED FOR 103 WK (STUDY DURATION: 2 YR), Species: RAT, Strain/Sex: F344/FEMALE, Target Tissue: Type of Lesion: ANTERIOR PITUITARY GLAND: ADENOMA","3/50 (62%), 24/48 (50%), 19%, not calculated"
same,"tumour outcome (control, treated, inhibition, significance)","Dose [Inhibitor]: 0, 20 PPM IN FEED FOR 103 WK (STUDY DURATION: 2 YR), Species: RAT, Strain/Sex: F344/FEMALE, Target Tissue: Type of Lesion: MAMMARY GLAND: FIBROADENOMA","21/50 (42%), 11/50 (22%), 48%, not calculated"
same,"tumour outcome (control, treated, inhibition, significance)","Dose [Inhibitor]: 0, 20 PPM IN FEED FOR 103 WK (STUDY DURATION: 2 YR), Species: RAT, Strain/Sex: F344/FEMALE, Target Tissue: Type of Lesion: UTERUS: ENDOMETRIAL STROMA POLYP","10/50 (20%), 6/50 (12%), 40%, not calculated"
same,"tumour outcome (control, treated, inhibition, significance)","Dose [Inhibitor]: 0, 20 PPM IN FEED FOR 103 WK (STUDY DURATION: 2 YR), Species: RAT, Strain/Sex: F344/MALE, Target Tissue: Type of Lesion: ADRENAL GLAND: PHEOCHROMOCYTOMA","23/49 (47%), 15/44 (34%), 28%, not calculated"
same,"tumour outcome (control, treated, inhibition, significance)","Dose [Inhibitor]: 0, 20 PPM IN FEED FOR 103 WK (STUDY DURATION: 2 YR), Species: RAT, Strain/Sex: F344/MALE, Target Tissue: Type of Lesion: ANTERIOR PITUITARY GLAND: ADENOMA","15/49 (31%), 15/48 (31%), 0%, not significant"
same,"tumour outcome (control, treated, inhibition, significance)","Dose [Inhibitor]: 0, 100 PPM IN FEED FOR 103 WK (STUDY DURATION: 2 YR), Species: MOUSE, Strain/Sex: B6C3F1/FEMALE, Target Tissue: Type of Lesion: ANTERIOR PITUITARY GLAND: ADENOMA","12/49 (24%), 6/49 (12%), 50%, not calculated and 12/49 (24%), 1/46 (2%), 92%, p<0.01"
same,"tumour outcome (control, treated, inhibition, significance)","Dose [Inhibitor]: 0, 100 PPM IN FEED FOR 103 WK (STUDY DURATION: 2 YR), Species: MOUSE, Strain/Sex: B6C3F1/FEMALE, Target Tissue: Type of Lesion: HARDERIAN GLAND: ADENOMA","5/50 (10%), 0/47 (0%), 100%, p<0.05"
same,"tumour outcome (control, treated, inhibition, significance)","Dose [Inhibitor]: 0, 100 PPM IN FEED FOR 103 WK (STUDY DURATION: 2 YR), Species: MOUSE, Strain/Sex: B6C3F1/FEMALE, Target Tissue: Type of Lesion: LUNG: ADENOMA OR CARCINOMA","8/50 (16%), 1/47 (2%), 88%, p<0.01"
same,"tumour outcome (control, treated, inhibition, significance)","Dose [Inhibitor]: 0, 100 PPM IN FEED FOR 103 WK (STUDY DURATION: 2 YR), Species: MOUSE, Strain/Sex: B6C3F1/FEMALE, Target Tissue: Type of Lesion: LUNG: ADENOMA","7/50 (14%), 1/47 (2%), 86%, p<0.05"
same,"tumour outcome (control, treated, inhibition, significance)","Dose [Inhibitor]: 0, 100 PPM IN FEED FOR 103 WK (STUDY DURATION: 2 YR), Species: MOUSE, Strain/Sex: B6C3F1/MALE, Target Tissue: Type of Lesion: LIVER: ADENOMA OR CARCINOMA","14/50 (28%), 2/50 (4%), 86%, p<0.01"
same,"tumour outcome (control, treated, inhibition, significance)","Dose [Inhibitor]: 0, 100 PPM IN FEED FOR 103 WK (STUDY DURATION: 2 YR), Species: MOUSE, Strain/Sex: B6C3F1/MALE, Target Tissue: Type of Lesion: LIVER: ADENOMA","10/50 (20%), 1/50 (2%), 90%, p<0.01"
same,"tumour outcome (control, treated, inhibition, significance)","Dose [Inhibitor]: 0, 100 PPM IN FEED FOR 103 WK (STUDY DURATION: 2 YR), Species: MOUSE, Strain/Sex: B6C3F1/MALE, Target Tissue: Type of Lesion: LIVER: CARCINOMA","4/50 (8%), 1/50 (2%), 75%, not calculated"
same,"tumour outcome (control, treated, inhibition, significance)","Dose [Inhibitor]: 0, 100 PPM IN FEED FOR 103 WK (STUDY DURATION: 2 YR), Species: MOUSE, Strain/Sex: B6C3F1/MALE, Target Tissue: Type of Lesion: LUNG: ADENOMA","6/50 (12%), 3/50 (6%), 50%, not calculated"
same,"tumour outcome (control, treated, inhibition, significance)","Dose [Inhibitor]: 0, 100 PPM IN FEED FOR 103 WK (STUDY DURATION: 2 YR), Species: RAT, Strain/Sex: F344/FEMALE, Target Tissue: Type of Lesion: ANTERIOR PITUITARY GLAND: ADENOMA","31/50 (62%), 19/50 (38%), 39%, p<0.05"
same,"tumour outcome (control, treated, inhibition, significance)","Dose [Inhibitor]: 0, 100 PPM IN FEED FOR 103 WK (STUDY DURATION: 2 YR), Species: RAT, Strain/Sex: F344/FEMALE, Target Tissue: Type of Lesion: MAMMARY GLAND: FIBROADENOMA","21/50 (42%), 2/50 (4%), 90%, p<0.01"
same,"tumour outcome (control, treated, inhibition, significance)","Dose [Inhibitor]: 0, 100 PPM IN FEED FOR 103 WK (STUDY DURATION: 2 YR), Species: RAT, Strain/Sex: F344/FEMALE, Target Tissue: Type of Lesion: UTERUS: ENDOMETRIAL STROMA POLYP","10/50 (20%), 3/50 (6%), 70%, p<0.05"
same,"tumour outcome (control, treated, inhibition, significance)","Dose [Inhibitor]: 0, 100 PPM IN FEED FOR 103 WK (STUDY DURATION: 2 YR), Species: RAT, Strain/Sex: F344/MALE, Target Tissue: Type of Lesion: ADRENAL GLAND: PHEOCHROMOCYTOMA","23/49 (47%), 7/50 (14%), 70%, p<0.01"
same,"tumour outcome (control, treated, inhibition, significance)","Dose [Inhibitor]: 0, 100 PPM IN FEED FOR 103 WK (STUDY DURATION: 2 YR), Species: RAT, Strain/Sex: F344/MALE, Target Tissue: Type of Lesion: ANTERIOR PITUITARY GLAND: ADENOMA","15/49 (31%), 9/49 (18%), 42%, not calculated"
same,"tumour outcome (control, treated, inhibition, significance)","Dose [Inhibitor]: 0, 100 PPM IN FEED FOR 103 WK (STUDY DURATION; 2 YR), Dose [Inhibitor]: 0, 100 PPM IN FEED FOR 103 WK (STUDY DURATION; 2 YR), Species: MOUSE, Strain/Sex: B6C3F1/MALE, Target Tissue: Type of Lesion: HARDERIAN GLAND: ADENOMA","4/50 (8%), 0/50 (0%), 100%, not calculated"
same,"tumour outcome (control, treated, inhibition, significance)","Dose [Inhibitor]: O, 20 PPM IN FEED FOR 103 WK (STUDY DURATION: 2 YR), Species: MOUSE, Strain/Sex: B6C3F1/MALE, Target Tissue: Type of Lesion: LUNG: ADENOMA OR CARCINOMA","8/50 (16%), 3/50 (6%), 63%, not calculated"
same,"tumour outcome (control, treated, inhibition, significance)","Dose [Inhibitor]: O, 100 PPM IN FEED FOR 103 WK (STUDY DURATION: 2 YR), Species: MOUSE, Strain/Sex: B6C3F1/MALE, Target Tissue: Type of Lesion: LUNG: ADENOMA OR CARCINOMA","8/50 (16%), 4/50 (8%), 50%, not calculated"
